# Measurements as given in patent US20260297109A1, “COMPOUNDS AS SUMO ACTIVATING ENZYME INHIBITORS” (WIGEN BIOMEDICINE TECHNOLOGY (SHANGHAI) CO., LTD., priority 2022, published 2026).
# Target: T1, SAE (Homo sapiens, UniProt Q9UBT2)
# T1 construct: endogenous in cells; host or cells: HCT116
# T1 sequence (Q9UBT2 1-640): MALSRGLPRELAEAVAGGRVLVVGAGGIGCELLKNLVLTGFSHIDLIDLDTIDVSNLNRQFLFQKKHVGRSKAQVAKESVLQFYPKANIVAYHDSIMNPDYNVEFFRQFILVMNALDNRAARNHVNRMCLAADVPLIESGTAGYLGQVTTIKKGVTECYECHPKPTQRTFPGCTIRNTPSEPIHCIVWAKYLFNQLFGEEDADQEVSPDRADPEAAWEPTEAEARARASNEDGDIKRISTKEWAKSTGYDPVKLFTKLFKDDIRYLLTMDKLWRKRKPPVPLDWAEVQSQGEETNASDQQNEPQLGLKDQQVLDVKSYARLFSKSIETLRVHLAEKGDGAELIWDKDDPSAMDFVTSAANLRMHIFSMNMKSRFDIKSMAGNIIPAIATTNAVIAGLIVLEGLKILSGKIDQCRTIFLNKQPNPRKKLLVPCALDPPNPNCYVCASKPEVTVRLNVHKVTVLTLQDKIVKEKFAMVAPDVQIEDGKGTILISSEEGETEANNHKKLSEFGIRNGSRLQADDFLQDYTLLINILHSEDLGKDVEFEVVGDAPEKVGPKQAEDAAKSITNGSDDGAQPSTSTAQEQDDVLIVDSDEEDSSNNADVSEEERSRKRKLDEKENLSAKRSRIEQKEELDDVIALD
# T1 sequence (Q9UBE0 1-346): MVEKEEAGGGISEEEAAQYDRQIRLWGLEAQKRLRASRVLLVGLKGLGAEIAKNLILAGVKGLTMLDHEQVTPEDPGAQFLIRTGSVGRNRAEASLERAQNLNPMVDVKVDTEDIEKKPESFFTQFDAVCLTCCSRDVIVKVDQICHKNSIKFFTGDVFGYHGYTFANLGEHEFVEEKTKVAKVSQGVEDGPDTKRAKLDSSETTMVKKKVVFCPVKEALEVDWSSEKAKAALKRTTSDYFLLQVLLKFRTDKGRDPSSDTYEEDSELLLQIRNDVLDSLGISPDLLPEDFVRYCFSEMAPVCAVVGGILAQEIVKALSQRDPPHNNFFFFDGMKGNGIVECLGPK
# Assay: SUMO IF: in vitro inhibitory activity assay against SAE in HCT116 cells (SUMO-2/3 immunofluorescence)
# Assay type: cell-based
# Settings: class symbols, 6 h at 37° C.
# Description: Biological Example 1. In Vitro Inhibitory Activity Assay of Compounds of the Present Disclosure Against SAE
# HCT116 cells were seeded into a 96-well black transparent bottom plate at about 20000/well with 90 μL per well. The cells were incubated at 37° C. overnight for 24 h. The test compounds were 10-fold diluted to give a final concentration, and 10 μL of the diluted compounds was added to each well of the cell culture plate. The mixture was incubated at 37° C. for 6 h. The cells were then washed gently, the culture medium was discarded, and the cells were washed once with 200 μL of 0.1% PBST. 50 μL of 4% PFA was added to each well, and the cells were immobilized at room temperature for 20 min, and then washed with PBS 2-3 times. 50 μL of 0.2% Triton X-100 was added to each well, and the cells were left to stand at room temperature for 15 min and washed with 0.1% PBST 3 times. 100 μL of 3% BSA (0.6 g BSA+20 mL PBS) was added to each well, and the mixture was blocked at 37° C. for 30 min. After the blocking was completed, the liquid was removed and a primary antibody (SUMO-2/3 (18H8) Rabbit mAb, 1:400 dilution) was prepared with 1% BSA. 30 μL of the diluted primary antibody was added to each well, and the mixture was incubated at 4° C. overnight. The cells were washed 3 times with 200 μL of 0.1% PBST. A FITC secondary antibody (Fluorescein (FITC)-conjugated Affinipure Goat Anti-Rabbit IgG (H+L), 1:300 dilution) was further prepared with 1% BSA, and 40 μL of the diluted secondary antibody was added to each well. The mixture was incubated at room temperature in the dark for 2 h, and then the cells were washed 4 times with 0.1% PBST. The fluorescence signal of the sample was detected and compared to the DMSO group, and the inhibition rate and IC50 were calculated.
row,Compound,IC50
1,CC1CN[C@@]2(CCCc3sc(C(=O)c4cncnc4N[C@H]4C[C@H](O)[C@@H](COS(N)(=O)=O)[C@@H]4F)cc32)c2cc(Cl)ccc21 (stereo partly shown) [Compound 1021],> 200 nM
2,NS(=O)(=O)OC[C@H]1[C@H](F)[C@@H](Nc2ncncc2C(=O)c2nc3c(s2)CSC[C@@]32NCCc3ccc(Cl)cc32)C[C@@H]1O [Compound 592],> 200 nM
3,NS(=O)(=O)OC[C@H]1[C@H](F)[C@@H](Nc2ncncc2C(=O)c2cc3c(s2)CCC32NCC(=O)c3ccc(Cl)cc32)C[C@@H]1O (stereo partly shown) [Compound 167],50 to 200 nM
4,NS(=O)(=O)OC[C@H]1[C@H](F)[C@@H](Nc2ncncc2C(=O)c2cc3c(s2)CCCC32NCCc3cc(Cl)c(Cl)cc32)C[C@@H]1O (stereo partly shown) [Compound 112],50 to 200 nM
5,Cc1sc(C(=O)c2cncnc2N[C@H]2C[C@H](O)[C@@H](COS(N)(=O)=O)[C@@H]2F)cc1C1NCCc2cc(F)c(F)cc21 (stereo partly shown) [Compound 245],50 to 200 nM
6,NS(=O)(=O)OC[C@H]1[C@H](F)[C@@H](Nc2ncncc2C(=O)c2cc3c(s2)CCCC32NC3(CC3)Cc3ccc(Cl)cc32)C[C@@H]1O (stereo partly shown) [Compound 124],50 to 200 nM
7,Cc1ccc2c(c1)C1(CCc3sc(C(=O)c4cncnc4N[C@H]4C[C@H](O)[C@@H](COS(N)(=O)=O)[C@@H]4F)cc31)NCC2 (stereo partly shown) [Compound 148],50 to 200 nM
8,CN1Cc2sc(C(=O)c3cncnc3N[C@H]3C[C@H](O)[C@@H](COS(N)(=O)=O)[C@@H]3F)cc2[C@]2(C1)OCCc1ccc(Cl)cc12 [Compound 725],≤ 50 nM
9,NS(=O)(=O)OC[C@H]1[C@H](F)[C@@H](Nc2ncncc2C(=O)c2cc3c(s2)CNCC32NCCc3ccc(Cl)cc32)C[C@@H]1O (stereo partly shown) [Compound 582],50 to 200 nM
10,CN1CCc2ccc(Cl)cc2C12CCCc1sc(C(=O)c3cncnc3N[C@H]3C[C@H](O)[C@@H](COS(N)(=O)=O)[C@@H]3F)cc12 (stereo partly shown) [Compound 594],50 to 200 nM
11,NS(=O)(=O)OC[C@H]1[C@H](F)[C@@H](Nc2ncncc2C(=O)c2cc3c(s2)OC[C@@]32NCCc3ccccc32)C[C@@H]1O [Compound 140],> 200 nM
12,NS(=O)(=O)OC[C@H]1[C@H](F)[C@@H](Nc2ncncc2C(=O)c2cc3c(s2)C(F)(F)CC32NCCc3ccc(Cl)cc32)C[C@@H]1O (stereo partly shown) [Compound 327],50 to 200 nM
13,CN(C)c1sc(C(=O)c2cncnc2N[C@H]2C[C@H](O)[C@@H](COS(N)(=O)=O)[C@@H]2F)cc1C1NCCc2ccc(Cl)cc21 (stereo partly shown) [Compound 263],50 to 200 nM
14,Cc1ccc2c(c1)C1(CCCc3sc(C(=O)c4cncnc4N[C@H]4C[C@H](O)[C@@H](COS(N)(=O)=O)[C@@H]4F)cc31)NCC2 (stereo partly shown) [Compound 106],50 to 200 nM
15,COc1ccc2c(c1)[C@]1(CCCc3sc(C(=O)c4cncnc4N[C@H]4C[C@H](O)[C@@H](COS(N)(=O)=O)[C@@H]4F)cc31)NCC2 [Compound 643],> 200 nM
16,NS(=O)(=O)OC[C@H]1[C@H](F)[C@@H](Nc2ncncc2C(=O)c2cc3c(s2)CCC[C@@]32NCCc3cnc(Cl)cc32)C[C@@H]1O [Compound 598],> 200 nM
17,NS(=O)(=O)OC[C@H]1[C@H](F)[C@@H](Nc2ncncc2C(=O)c2cc3c(s2)C(F)(F)C[C@]32NCCc3ccc(Cl)cc32)C[C@@H]1O [Compound 329],50 to 200 nM
18,NS(=O)(=O)OC[C@H]1[C@H](F)[C@@H](Nc2ncncc2C(=O)c2cc3c(s2)CCC[C@@]32NCCc3ncc(Cl)cc32)C[C@@H]1O [Compound 604],> 200 nM

row,Compound,IC50
1,CC1Cc2ccc(Cl)cc2C2(CCCc3sc(C(=O)c4cncnc4N[C@H]4C[C@H](O)[C@@H](COS(N)(=O)=O)[C@@H]4F)cc32)N1 (stereo partly shown) [Compound 1023],50 to 200 nM
2,COc1sc(C(=O)c2cncnc2N[C@H]2C[C@H](O)[C@@H](COS(N)(=O)=O)[C@@H]2F)cc1C1NCCc2ccc(Cl)cc21 (stereo partly shown) [Compound 262],50 to 200 nM
3,COc1cc2c(cc1Cl)[C@@]1(CCc3sc(C(=O)c4cncnc4N[C@H]4C[C@H](O)[C@@H](COS(N)(=O)=O)[C@@H]4F)cc31)NCC2 [Compound 696],50 to 200 nM
4,CC1=C[C@@]2(NCCc3ccc(Cl)cc32)c2cc(C(=O)c3cncnc3N[C@H]3C[C@H](O)[C@@H](COS(N)(=O)=O)[C@@H]3F)sc21 [Compound 325],> 200 nM
5,CC1(C)CN[C@@]2(CCCc3sc(C(=O)c4cncnc4N[C@H]4C[C@H](O)[C@@H](COS(N)(=O)=O)[C@@H]4F)cc32)c2cc(Cl)ccc21 [Compound 1027],> 200 nM
6,NS(=O)(=O)OC[C@H]1[C@H](F)[C@@H](Nc2ncncc2C(=O)c2cc3c(s2)COC[C@]32NCCc3ccc(Cl)c(F)c32)C[C@@H]1O [Compound 569],50 to 200 nM
7,CC1CN[C@]2(CCCc3sc(C(=O)c4cncnc4N[C@H]4C[C@H](O)[C@@H](COS(N)(=O)=O)[C@@H]4F)cc32)c2cc(Cl)ccc21 (stereo partly shown) [Compound 1022],≤ 50 nM
8,NS(=O)(=O)OC[C@H]1[C@H](F)[C@@H](Nc2ncncc2C(=O)c2cc3c(s2)CC[C@]32NC3(CC3)Cc3ccc(Cl)cc32)C[C@@H]1O [Compound 705],50 to 200 nM
9,CC1=C[C@]2(NCCc3ccc(F)cc32)c2cc(C(=O)c3cncnc3N[C@H]3C[C@H](O)[C@@H](COS(N)(=O)=O)[C@@H]3F)sc21 [Compound 623],50 to 200 nM
10,Cc1sc(C(=O)c2cncnc2N[C@H]2C[C@H](O)[C@@H](COS(N)(=O)=O)[C@@H]2F)cc1[C@@H]1OCCc2ccc(Cl)cc21 [Compound 988],50 to 200 nM
11,CN1Cc2sc(C(=O)c3cncnc3N[C@H]3C[C@H](O)[C@@H](COS(N)(=O)=O)[C@@H]3F)cc2[C@@]2(C1)OCCc1ccccc12 [Compound 718],> 200 nM
12,N#Cc1cc2c(cc1Cl)[C@@]1(CCCc3sc(C(=O)c4cncnc4N[C@H]4C[C@H](O)[C@@H](COS(N)(=O)=O)[C@@H]4F)cc31)NCC2 [Compound 674],≤ 50 nM
13,NS(=O)(=O)OC[C@H]1[C@H](F)[C@@H](Nc2ncncc2C(=O)c2cc3c(s2)CCC[C@]32NCCc3cnc(Cl)cc32)C[C@@H]1O [Compound 599],≤ 50 nM
14,NS(=O)(=O)OC[C@H]1[C@H](F)[C@@H](Nc2ncncc2C(=O)c2cc(C3NCCc4ccc(Cl)cc43)c(Cl)s2)C[C@@H]1O (stereo partly shown) [Compound 258],50 to 200 nM
15,CCN1Cc2sc(C(=O)c3cncnc3N[C@H]3C[C@H](O)[C@@H](COS(N)(=O)=O)[C@@H]3F)cc2C2(C1)OCCc1ccc(Cl)cc12 (stereo partly shown) [Compound 729],≤ 50 nM
16,NS(=O)(=O)OC[C@H]1[C@H](F)[C@@H](Nc2ncncc2C(=O)c2cc3c(s2)CC[C@]32NCCc3cc(Cl)c(Cl)cc32)C[C@@H]1O [Compound 693],≤ 50 nM
17,NS(=O)(=O)OC[C@H]1[C@H](F)[C@@H](Nc2ncncc2C(=O)c2cc3c(s2)CCC32NCCc3cc(F)c(Cl)cc32)C[C@@H]1O (stereo partly shown) [Compound 153],≤ 50 nM
18,CC1(C)CN[C@]2(CCCc3sc(C(=O)c4cncnc4N[C@H]4C[C@H](O)[C@@H](COS(N)(=O)=O)[C@@H]4F)cc32)c2cc(Cl)ccc21 [Compound 1028],50 to 200 nM

# Same assay, conditions: numeric values, 6 h at 37° C.
row,Compound,IC50
1,NS(=O)(=O)OC[C@H]1[C@H](F)[C@@H](Nc2ncncc2C(=O)c2cc3c(s2)CC[C@@]32NCCc3ccc(F)cc32)C[C@@H]1O [Compound 134],> 1000 nM
2,NS(=O)(=O)OC[C@H]1[C@H](F)[C@@H](Nc2ncncc2C(=O)c2cc3c(s2)CCC[C@@]32NCCc3ccc(Cl)cc32)C[C@@H]1O [Compound 89],> 1000 nM
3,Cc1sc(C(=O)c2cncnc2N[C@H]2C[C@H](O)[C@@H](COS(N)(=O)=O)[C@@H]2F)cc1[C@H]1NCCc2ccc(F)cc21 [Compound 237],> 1000 nM
4,C#CCN1Cc2sc(C(=O)c3cncnc3N[C@H]3C[C@H](O)[C@@H](COS(N)(=O)=O)[C@@H]3F)cc2[C@]2(C1)NCCc1ccc(Cl)cc12 [Compound 659],20.3 nM
